What was measured:
Assay type in all cases: functional, cell-based
CCRF-CEM = experiment: Cytotoxicity against human CEM cells
[1] = Antiproliferative activity against human DND1 cells
MOLT-3 = experiment: Antiproliferative activity against human Molt3 cells
Bel-7402 = experiment: Antiproliferative activity against human Bel-7402 cells
MCF7 = experiment: Antiproliferative activity against human MCF7 cells
DU-145 = experiment: Antiproliferative activity against human DU145 cells
PC-3 = experiment: Antiproliferative activity against human PC3 cells

`COc1ccc(NS(=O)(=O)c2ccc3c(c2)CCN3C)c(OC)n1` gave an IC50 (CCRF-CEM) of over 2000 nM.
`CCn1c2ccccc2c2cc(S(=O)(=O)Nc3ccc(OC)cc3OC)ccc21` showed an IC50 (CCRF-CEM) of 57 nM and an IC50 [1] of 120 nM.
Compound `COc1ccc(/C=C/c2ccc(OC)c(O)c2)c(OC)n1` has an IC50 (CCRF-CEM) of over 2000 nM.
For `COc1cc([C@@H]2c3cc4c(cc3[C@H](O)[C@H]3COC(=O)[C@H]23)OCO4)cc(OC)c1OC` [PODOFILOX], the IC50 (CCRF-CEM) was 7.2 nM and the IC50 [1] was 12 nM.
`CCn1c2ccccc2c2cc(S(=O)(=O)Nc3cc(OC)c(OC)c(OC)c3)ccc21` showed an IC50 (CCRF-CEM) of 56 nM and an IC50 [1] of 89 nM.
With `COc1ccc(NS(=O)(=O)c2ccc3c(ccn3C)c2)c(OC)n1` the IC50 (CCRF-CEM) was 712 nM.
`COc1ccc(/C=C\c2ccc(OC)c(O)c2)c(OC)n1` showed an IC50 (CCRF-CEM) of 342 nM.
Work on `CCn1c2ccccc2c2cc(S(=O)(=O)Nc3cccnc3OC)ccc21` yielded an IC50 (CCRF-CEM) of 786 nM.
`CCn1c2ccccc2c2cc(/C=C\c3ccc(OC)nc3OC)ccc21` gave an IC50 (CCRF-CEM) of over 2000 nM.
Compound `CCn1c2ccccc2c2cc(S(=O)(=O)Nc3ccc(OC)nc3OC)ccc21` has an IC50 (CCRF-CEM) of 122 nM, an IC50 (MOLT-3) of 22 nM and an IC50 (Bel-7402) of 976 nM. For the same compound, the IC50 (MCF7) was 241 nM, the IC50 (DU-145) was 729 nM and the IC50 (PC-3) was 603 nM. For the same compound, the IC50 [1] was 193 nM.
`CCn1c2ccccc2c2cc(S(=O)(=O)Nc3ccc(C)nc3C)ccc21` showed an IC50 (CCRF-CEM) of over 2000 nM.
`CCn1c2ccccc2c2cc(S(=O)(=O)Nc3ccc(Cl)nc3Cl)ccc21` showed an IC50 (CCRF-CEM) of over 2000 nM.
Work on `CCn1c2ccccc2c2cc(S(=O)(=O)Nc3cc(OC)nc(OC)n3)ccc21` yielded an IC50 (CCRF-CEM) of over 2000 nM.
With `CCn1c2ccccc2c2cc(S(=O)(=O)Nc3nc(OC)cc(OC)n3)ccc21` the IC50 (CCRF-CEM) was over 2000 nM.
`CCn1c2ccccc2c2cc(S(=O)(=O)Nc3cc(Cl)nc(Cl)c3)ccc21` showed an IC50 (CCRF-CEM) of over 2000 nM.
In the case of `CCn1c2ccccc2c2cc(/C=C/c3ccc(OC)nc3OC)ccc21`, the IC50 (CCRF-CEM) is reported as over 2000 nM.
`COc1ccc(/C=C\c2cc(OC)c(OC)c(OC)c2)cc1O` [COMBRETASTATIN A4] gave an IC50 [1] of 2.5 nM.
Work on `CCn1c2ccccc2c2cc(S(=O)(=O)Nc3cc(OC)ncn3)ccc21` yielded an IC50 (CCRF-CEM) of over 2000 nM.
Compound `CCn1c2ccccc2c2cc(S(=O)(=O)Nc3ccc(OC)nc3)ccc21` has an IC50 (CCRF-CEM) of 649 nM.
`COc1ccc(NS(=O)(=O)c2ccc3c(c2)c2ccccc2n3C)c(OC)n1` gave an IC50 (CCRF-CEM) of 101 nM.

— ChEMBL document CHEMBL1144595, “Novel pyridinyl and pyrimidinylcarbazole sulfonamides as antiproliferative agents” (Bioorg Med Chem Lett, 2007)
